# Data taken from patent US20040097737A1 (priority 2001, published 2004).
# Test system: patients diagnosed as acute attack of vertigo
# Details: human, in vivo
smiles,measurement,value
OC(CCCN1CCCCC1)(c1ccccc1)c1ccccc1 [Diphenidol],Total effective (patients effective/sample),19/28
same,Total effective percentage,67.9%
